Test results taken from PubChem BioAssay (NCI).
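Where inhibition never reached the appropriate level, the endpoint shown equals the highest concentration tested. Otherwise, values were interpolated linearly from a five-concentration, 48-hour dose response in 96-well plates. Abbreviation: GI50, concentration required for 50% inhibition of growth. Definition used: TGI = concentration required for complete inhibition of growth.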

Columns and labels:
Experiment in all cases: growth of human tumour cells (NCI), 48 h
MDA-MB-435 = system: MDA-MB-435
UACC-62 melanoma = system: UACC-62 melanoma
HL-60(TB) leukemia = system: HL-60(TB) leukemia
SR leukemia = system: SR leukemia
COLO 205 colon = system: COLO 205 colon
SF-268 CNS = system: SF-268 CNS
T-47D breast = system: T-47D breast
NCI-H226 lung = system: NCI-H226 lung
BT-549 breast = system: BT-549 breast
HCT-15 colon = system: HCT-15 colon

Row | SMILES | TGI (MDA-MB-435) | TGI (UACC-62 melanoma) | TGI (HL-60(TB) leukemia) | TGI (SR leukemia) | TGI (COLO 205 colon) | TGI (SF-268 CNS) | TGI (T-47D breast) | TGI (NCI-H226 lung) | TGI (BT-549 breast) | TGI (HCT-15 colon) | GI50 (MDA-MB-435) | GI50 (UACC-62 melanoma) | GI50 (HL-60(TB) leukemia) | GI50 (SR leukemia) | GI50 (COLO 205 colon) | GI50 (SF-268 CNS) | GI50 (T-47D breast) | GI50 (NCI-H226 lung) | GI50 (HCT-15 colon)
1 | C/C(=N\NC(=S)N(C)C)c1nc2ncccc2[nH]1 | > 100 µM | 2.7 µM | 1.32 µM | > 100 µM | 23.9 µM | > 100 µM | 14.7 µM | 2.05 µM | 6.48 µM | > 100 µM |  |  |  |  |  |  |  |  | 
2 | NNC(=O)CCSc1ccccc1 | > 100 µM | > 100 µM | > 100 µM | > 100 µM | > 100 µM | > 100 µM | > 100 µM | > 100 µM | > 100 µM | > 100 µM |  |  |  |  |  |  |  |  | 
3 | CCCn1cc2c(SC)nc(SC)nc2n1 |  |  | > 100 µM | > 100 µM | > 100 µM | > 100 µM |  | > 100 µM |  | > 100 µM |  |  |  |  |  |  |  |  | 
4 | COc1ccc(C(O)(c2ccccc2)c2nccc3ccccc23)cc1 (stereo unspecified) | > 100 µM | > 100 µM | > 100 µM | > 100 µM | > 100 µM | > 100 µM | > 100 µM |  | > 100 µM | > 100 µM |  |  |  |  |  |  |  |  | 
5 | O=C(Nc1ccc(-n2cc(-c3ccncc3)c(-c3ccc(O)c(Cl)c3)n2)cc1)Nc1ccc(Cl)c(C(F)(F)F)c1 | 15.3 µM | 14.8 µM | 6.27 µM | 21.6 µM | 22.9 µM | 26.7 µM | 64.1 µM | 51.8 µM |  | 11.8 µM | 2.89 µM | 3.9 µM | 2.54 µM | 3.96 µM | 6.23 µM | 4.36 µM | 8.61 µM | 21.4 µM | 2.95 µM
6 | c1ccc(C(NC2=NCCO2)c2ccccc2)cc1 | > 10 µM | > 10 µM | > 10 µM | > 10 µM | > 10 µM | > 10 µM | > 10 µM | > 10 µM |  | > 10 µM |  |  |  |  |  |  |  |  | 
7 | O=C(O)CCc1nc2ccccc2[nH]1 | > 100 µM | > 100 µM | > 100 µM | > 100 µM | > 100 µM | > 100 µM | > 100 µM | > 100 µM | > 100 µM | > 100 µM |  |  |  |  |  |  |  |  | 
8 | OCCCNc1ncnc2[nH]ncc12 | > 100 µM | > 100 µM | > 100 µM |  | > 100 µM | > 100 µM | > 100 µM | > 100 µM | > 100 µM | > 100 µM |  |  |  |  |  |  |  |  | 
9 | CCOC(=O)C(Cc1cn(C(C)=O)c2ccccc12)P(=O)(OCC)OCC (stereo unspecified) |  |  |  | > 100 µM | > 100 µM |  | > 100 µM | > 100 µM |  | > 100 µM |  |  |  |  |  |  |  |  | 
10 | C/C(=N\NC(=S)NCCCCNC(=S)N/N=C(\C)c1ccccn1)c1ccccc1 | > 100 µM | 7.03 µM |  | 2.17 µM |  | > 36.5 µM |  | > 23.6 µM | 29.5 µM | > 100 µM |  |  |  |  |  |  |  |  | 
11 | Cc1[nH]c(=O)[nH]c(=O)c1/C=C/C(=O)NC(CO)CS(=O)Cc1ccccc1 (stereo unspecified) |  | > 300 µM | > 300 µM |  | > 300 µM | > 300 µM |  | > 300 µM |  | > 300 µM |  |  |  |  |  |  |  |  | 
12 | CC(C)C(=O)CC(c1ccc(Cl)cc1)N1N=C(C(C)C)CC1c1ccc(Cl)cc1 (stereo unspecified) |  | > 100 µM | 76.8 µM | 28.2 µM | > 100 µM | > 100 µM |  | > 100 µM |  |  |  |  |  |  |  | > 100 µM |  |  | 
